Here are results for three molecules from publication PMC6704344, “The Preclinical Pharmacological Study of a Novel Long-Acting Local Anesthetic, a Fixed-Dose Combination of QX-OH/Levobupivacaine, in Rats” (Frontiers in Pharmacology, 2019).

On the set-up of data set [1]: method as in Corvetto et al., 2012. The conditions noted are these: transversus abdominis plane block; ref Corvetto et al., 2012; cited from earlier work.
Data set [2] can be described thus: Drug concentration and pharmacokinetics in muscle near the injection site after sciatic nerve block in rats. The data set is classed as in vivo, rat. The procedure:
(§1) In brief, rats were anesthetized by inhaling 1%–2% isoflurane mixed with oxygen through an inhouse-made mask. Then, the rats were placed at right lateral position and inserted vertically using a 23-gauge injector at the middle of the line from the greater trochanter to ischial tuberosity ([Binshtok et al., 2007]; [Zhang et al., 2017b]). Once the bone has been contacted, 200 μl drug was injected.
(§2) On the basis of previous pharmacodynamic studies, nine sampling points were used for determining drug concentration in muscle and sciatic nerve for QX-OH and LL-1: 0.5, 1, 2, 3, 4, 5, 6, 7, and 8 h; four sampling points for Levo-Bupi: 0.5, 1, 2, and 3 h. Due to the destructive sampling, five male rats were sacrificed at each time point for collecting muscle and sciatic nerve nearby the injection site. Then all samples were weighed and frozen at -80°C.
(§3) According to previous study ([Zhang et al., 2017a]), plasma samples were deproteinized by acetonitrile solution with ropivacaine hydrochloride (internal standard, IS). The mixture was centrifuged for 10 min at 28,621 × g in 4°C after fully vortexed. The supernatant was diluted with ultrapure water (50:50, v/v). Muscle and sciatic nerve samples were homogenized by gentleMACS™ Dissociator (Miltenyi Biotec, Germany) and tissue grinder (model SCIENTZ-48, Ningbo, China), respectively. Tissue homogenate was mixed with IS solution by vortex and then centrifuged for 10 min at 28,621 × g. Then, the supernatant was diluted with ultrapure water at equal volume ratio. LC-MS/MS analysis system consist of Agilent 6460 triple quadrupole mass spectrometer and electrospray ionization source (Agilent Technologies, CA, USA). Chromatographic separation was adopted by Agilent Extend C18 column (100 mm × 3 mm, 3.5 μm) at 35°C with isocratic elution containing 0.05% formic acid and acetonitrile at the volume ratio of 78:22 at a flow rate of 0.3 ml/min. Mass spectrometry conditions were in a positive ionization mode: the sheath gas flow rate, 11.0 L/min; sheath gas heater temperature, 300°C; nebulizer pressure, 45 psi; capillary voltage, 3,500 V. MassHunter software was used to analyze data (B.04.00 Build 4.0.479.0, Agilent Technologies, USA).
(§4) The parameters of pharmacokinetics were analyzed by DAS® (Drug and Statistics, version 3.2.1, China) using noncompartmental model. In this study, the following pharmacokinetic parameters were calculated: the value of maximum concentration (Cmax) and the time to acquire (Tmax); the elimination half-life (t1/2); area under curve (AUC) from zero to the last time point (AUC0–last) and from zero to infinity (AUC0–∞); clearance (CL/F), and volume of distribution (Vd/F).

Data set [3] is described as follows: Plasma pharmacokinetics after sciatic nerve block in rats. The conditions noted are these: for Tmax / AUC(0-inf) / AUC(0-t) / Cmax / Vd/F / half-life / CL/F: plasma. It counts as in vivo, rat.
Excerpt: In brief, rats were anesthetized by inhaling 1%–2% isoflurane mixed with oxygen through an inhouse-made mask. Then, the rats were placed at right lateral position and inserted vertically using a 23-gauge injector at the middle of the line from the greater trochanter to ischial tuberosity ([Binshtok et al., 2007]; [Zhang et al., 2017b]).
According to the China Food and Drug Administration guidance for preclinical pharmacokinetic study, there should be more than three sampling points adjacent to the time to reach the maximum concentration. […] Thus, to obtain an accurate value of the maximum concentration of Levo-Bupi, we added another time point at 0.33 h. […] Blood samples were maintained in heparinized polypropylene tube separately and then centrifuged at 877 × g for 10 min to gain plasma within 1 h. All the samples were kept at -80°C.
as §3, §4

Data set [4] has as its system frog sciatic nerve fibers. Put plainly: Compound action potentials (CAPs) from frog sciatic nerve fibers. The conditions noted are these: LL-1, 35 mM QX-OH, 10 mM Levo-Bupi. An excerpt:
According to previous published researches ([Matsushita et al., 2013]; [Ohtsubo et al., 2015]). Nine of frogs were decapitated and then pithed. Then, the sciatic nerve was dissected from the lumbar plexus to the knee. The two ends of isolated sciatic nerves were carefully tied to the wires by threads and placed in Ringer solution (NaCl, 115.5 mmol/L; KCl, 2.0 mmol/L; CaCl2, 1.8 mmol/L; Na2HPO4, 1.3 mmol/L and NaH2PO4, 0.7 mmol/L; pH = 7.4).
The compound action potentials (CAPs) from frog sciatic nerve fibers was recorded by the biological function experiment system (BL-420F, Chengdu Techman Software, China). All practices were carried out at room temperature. The sciatic nerve was loosely placed in three platinum wires and then CAPs were recorded in air using a preamplifier. In this system, two of the platinum wires were used to record CAPs, and the other one was for stimulation. The parameters of stimulation were set as follows: intensity, 3 V; frequency, 1 Hz; rectangular pulses, 0.1 ms. The procedure should be performed quickly in order to avoid the nerve dry. The time of measurement should be less than 2 min. […] In this study, we compared the amplitude of CAPs after using drugs with baseline to present the degree of inhibition from frog sciatic nerve, and which was analyzed using the following equation: CAPs amplitude (%) = CAPs measurement/CAPs baseline × 100%.

Data set [5] can be described thus: Drug concentration and pharmacokinetics in sciatic nerve after sciatic nerve block in rats. It counts as in vivo, rat. The procedure:
as §1, §2, §3, §4

A further data set has as its system HT22 cells. Put plainly: Cellular drug uptake assay. The conditions noted are these: LL-1 vs 10 mM Levo-Bupi alone, 10 min incubation, n = 10, p = 0.067. It counts as cell-based, mouse. The procedure:
HT22 cell line, a sub-line derived from HT4 cells that were originally immortalized from primary mouse hippocampal neuron, were a generous gift from Dr. Huang (West China Second University Hospital, Sichuan University, China). HT22 cells were cultured in DMEM with high glucose (HyClone, Utah, USA) supplemented with 10% fetal bovine serum (Gibco, New York, USA) and 1% penicillin and streptomycin (HyClone, Utah, USA) in a humidified incubator with 5% CO2 and 95% air at 37°C.
According to previous study ([Brenneis et al., 2014]), cells were plated on 35 mm 6-well dishes (2.5 × 10^5 per well). When cells reached confluence at 70%–80%, the medium was removed, and plates washed with PBS (NaCl, 137.0 mmol/L; KCl, 2.7 mmol/L; KH2PO4, 1.5 mmol/L and Na2HPO4·12H2O, 8.0 mmol/L; pH = 7.4). Thirty wells were divided to incubate with LL-1, 35 mM QX-OH and 10 mM Levo-Bupi for 10 min, and then washed four times with PBS. Cells were translated to polypropylene tube. The cell suspensions were centrifuged at 72 × g and the supernatants were removed by pipette. All samples were frozen at -80°C before testing. Samples were homogenized with 100 µL of saline using a tissue grinder. After mixing 50 μl homogenate, 50 μl acetonitrile, and 10 μl IS, then the mixture was centrifuged for 10 min at 28,621 × g, and the supernatant was injected for analysis.

A further data set concerns RAW, N1E and CHO cells. The conditions noted are these: cited from earlier work.
On the set-up of data set [6]: method as in Yu et al., 2002. The conditions noted are these: subcutaneous administration; ref Yu et al., 2002; cited from earlier work.
[7] abbreviates: male, rat, muscle near the injection site, muscle, given as LL-1, sciatic nerve block, n = 5 per time point, mean ± SEM.
Where [8] appears, read: muscle, given as LL-1, sciatic nerve block, n = 5 per time point, mean ± SEM.
Where [9] appears, read: both sexes, rat, 200 μl, Levobupivacaine alone (single drug), sciatic nerve block, mean ± SEM.
[10] abbreviates: both sexes, rat, given as LL-1, sciatic nerve block, n = 10, mean ± SEM.
The mark [11] stands for this setting: male, rat, sciatic nerve, given as LL-1, sciatic nerve block, n = 5 per time point, mean ± SEM.
Setting [12] is: sciatic nerve, given as LL-1, sciatic nerve block, n = 5 per time point, mean ± SEM.

A word on the Cmax: it is the peak of the concentration-time curve. The term Vd/F denotes the volume of distribution divided by bioavailability. For orientation: half-life means how long it takes for the measured level to halve. Broadly, the CL/F is the apparent clearance, not corrected for the fraction that reaches the circulation. For orientation: AUC(0-inf) means the area under the concentration-time curve extrapolated to infinity. Read a high AUC(0-inf) as more exposure. A word on the AUC(0-t): it is exposure summed from dosing to a finite time, without extrapolation to infinity. Low readings indicate low exposure, high ones high exposure. With `CCCCN1CCCC[C@H]1C(=O)Nc1c(C)cccc1C` [Levobupivacaine, levobupivacaine], in data set [1], the “change of Tmax on combining with epinephrine” value is on record as “doubled”. In data set [2] (at the same time points), the “increase of concentration in muscle, LL-1 vs single drug” value was in the range of 2 to 15 times. The Tmax stood at 0.5 h in data set [2] (male, rat, muscle near the injection site, muscle, given as LL-1, sciatic nerve block, n = 5 per time point); 0.5 h in data set [3] (Sprague-Dawley, 200 μl, Levo-Bupi as a single drug, rat sciatic nerve block, preliminary experiment, read-out: time to maximum concentration); 1.07 ± 0.16 h in data set [3] (both sexes, rat, 200 μl, Levobupivacaine alone (single drug), sciatic nerve block, mean ± SEM, read-out: Tmax); 4.11 ± 0.39 h in data set [3] (both sexes, rat, given as LL-1, sciatic nerve block, n = 10, mean ± SEM, read-out: Tmax); 4 h in data set [3] (rat, Levo-Bupi in combination with QX-314 (35 mM/10 mM), sciatic nerve block, n = 10, read-out: Tmax); 0.5 h in data set [5] (male, rat, sciatic nerve, given as LL-1, sciatic nerve block, n = 5 per time point). The peak concentration (Cmax) in data set [2] (setting [7]) is 256000 ± 28500 ng/g; in data set [3] (setting [9]), 142 ± 13 ng/mL; in data set [3] (both sexes, rat, given as LL-1 (35 mM QX-OH/10 mM Levo-Bupi), 200 μl, sciatic nerve block, n = 10, mean ± SEM), 114 ± 10.2 ng/mL; in data set [5] (setting [11]), 430000 ± 48600 ng/g. Moreover, the Vd/F in data set [2] (setting [7]) was found to be 3.01 ± 1.21 L; in data set [3] (setting [9]) it was 4.81 ± 0.5 L; in data set [3] (setting [10]) it was 3.81 ± 0.7 L; in data set [5] (setting [11]), 1.23 ± 0.8 L. For the same molecule, the half-life was 1.38 ± 0.6 h in data set [2] (setting [7]), 2.61 ± 0.31 h in data set [3] (setting [9]), 4.89 ± 1.77 h in data set [3] (setting [10]) and 1.28 ± 0.74 h in data set [5] (setting [11]). Further, the “AUC0–t” value in data set [2] (setting [8]) came to 417.58 ± 43.46 µg·h/g; in data set [5] (setting [12]), 935.82 ± 74.35 µg·h/g. For the same molecule, the “AUC0–∞” value was 417.86 ± 43.49 µg·h/g in data set [2] (setting [8]) and 935.88 ± 74.39 µg·h/g in data set [5] (setting [12]). In addition, the apparent clearance CL/F in data set [2] (setting [8]) was 1.59 ± 0.17 L/h; in data set [3] (Levobupivacaine alone (single drug), sciatic nerve block, mean ± SEM), 1.32 ± 0.08 L/h; in data set [3] (given as LL-1, sciatic nerve block, n = 10, mean ± SEM), 0.78 ± 0.10 L/h; in data set [5] (setting [12]) it was 0.70 ± 0.05 L/h. The “change of Tmax in plasma in combination with QX-OH vs alone” value in data set [3] (LL-1 vs Levo-Bupi alone, sciatic nerve block) was “increased by four times”. The AUC(0-inf) in data set [3] (setting [9]) was found to be 509 ± 31.5 ng·h/mL; in data set [3] (setting [10]), 819 ± 78.8 ng·h/mL. Moreover, the AUC(0-t) in data set [3] (setting [9]) turned out to be 471 ± 23.3 ng·h/mL; in data set [3] (setting [10]), 651 ± 47.4 ng·h/mL. Also, in data set [4] (n = 6, mean ± SEM), the “soak time required to block CAPs” value came out at 14.17 ± 2.01 min. The “CAPs amplitude (% of baseline)” value in data set [4] (within the first 5 min of soaking) is recorded as 34%. Further, the “increase of concentration in sciatic nerve, LL-1 vs single drug” value in data set [5] (at the same time points) lay in the range of 1.5 to 24 times. Moreover, the “cellular uptake of Levo-Bupi” value in the data set on HT22 cells is reported as “had no difference”.

On to `CC[N+](CC)(CC)CC(=O)Nc1c(C)cccc1C.[Br-]` [QX-314], for which the “cellular uptake of QX-314 in presence of bupivacaine” value in the data set with RAW, N1E and CHO cells is “enhanced the cellular uptake”.

For the molecule `CCCCN1CCCCC1C(=O)Nc1c(C)cccc1C` (stereo not drawn) [bupivacaine], the “time at which Cmax was reached” value in data set [6] is recorded as 0.5 h.
